Results: PMC11403733, “Asymmetric Dirhodium-Catalyzed Modification of Immunomodulatory Imide Drugs and Their Biological Assessment” (ACS Medicinal Chemistry Letters, 2024)

Key:
CRBN = target: T1, CRBN (Homo sapiens, UniProt Q96SW2); test: Fluorescence Resonance Energy Transfer-Based Cereblon Binding Assay (CRBN HTRF); details: 0.5 nM 6×His-CRBN-DDB1, 20 nM tracer CC0782985, TR-FRET
T1 construct: (CRBN a.a. 1−442, DDB1 a.a); made in house
Experimental: (§1) Section 6: Assay Protocols
(§2) Fluorescence Resonance Energy Transfer-Based NSD@ PWWP Cereblon Binding Assay. […]
(§3) Compounds for testing were spotted into a 1536 well plate (Greiner Cat#782075). CRBN and Tracer solution were incubated in compound wells for 20 minutes. Detection mix containing Anti6xHis Tb Crytate (CisBio Cat#61HI2TLF) was then added to assay wells for a final 0.5x assay concentration of detection antibody (stock is provided at 400x). Plates were incubated for 30 minutes before being read on Pherastar FSX plate reader using TR-FRET module (Excitation 340nm, Emssion 615/665nm). ePL and HiBiT degradation assays
(§4) DF15 cells overexpressing ePL tagged GSPT1 (DF15/GSPT1 ePL OE) was used to monitor the degradation of GSPT1 induced by experimental compounds. MDS-L cells overexpressing ePL tagged CK1α and GSPT1G575N (MDS-L/CK1α ePL OE_ GSPT1G575N OE) was used to monitor the degradation of CK1α induced by experimental compounds. NCCIT cells with HiBiT tag knocked in at the c-terminus of SALL4 (NCCIT/SALL4-HiBiT KI) was used to monitor the degradation of SALL4 induced by experimental compounds. DF15 cells with HiBiT tag knocked in at the n-terminus of IKZF3 (DF15/HiBiT-IKZF3 KI) was used to monitor the degradation of AIOLOS (IKZF3) induced by experimental compounds. […]

IKZF3 (Aiolos) = target: T2, IKZF3 (Aiolos) (Homo sapiens, UniProt Q96SW2+Q9UKT9); test: HiBiT degradation assay, DF15/HiBiT-IKZF3 KI cells; format: cell-based; details: N ≥ 3; for EC50: degradation, 4 hr incubation, top conc 10 uM; for IKZF3 Ymin: depth of degradation (100% = no reduction of protein level, 0% = complete degradation), 4 hr
T2 construct: endogenous in cells; host or cells: DF15 (HiBiT knock-in)
Experimental: as §1, §2, §3, §4
(§5) The cell culture medium recipes, seeding densities and compound incubation time with cells are […]
(§6) Ta r g e t Cell line Cell culture medium Seeding Compound
(§7) (HI) FBS, 1mM sodium pyruvate, 25mM Hepes, 0.1% pluronic acid,
(§8) GSPT1G575N OE ng/mL of human recombinant IL3 […]
(§9) sodium pyruvate, 25mM Hepes, 0.1% pluronic acid, 1X NEAA
(§10) For all degradation assays, compounds were pre-spotted in a 153 6 well plate (Corning 3727) starting at 10uM with 3-fold serial dilution down 11 points in replicates using an Echo 650 series acoustic liquid handler. 5uL/well cells were seeded in the assay ready plate at the density and in […]
(§11) The final DMSO concentration in the cell culture was 0.25%. The plates were equilibrated at room temperature for 30 minutes before putting into a 37 °C CO2 incubator. After appropriate incubation period, plates were retrieved from the incubator and set at room temperature to equilibrate for 30 minutes, before adding ePL or HiBiT detection reagent. For ePL detection, the pre-prepared mixture of EA reagent, lysis buffer, and substrate reagent at ratio 1:1:4 from the DiscoverX InCELL Detection Kit (Eurofins 96-0079L) according to the manufacturer ’s recommendation was added 3ul/well into the plate. Plates were incubated in the dark for 1hr at room temperature before reading using a BMG PheraStar luminescence reader. For HiBiT detection, Nano-Glo HiBiT Lytic Reagent (Promega, N3050) prepared according to the manufacturer ’s recommendation was added 3 uL/well into the plate. Plates were incubated 30 minutes at room temperature in the dark before reading using a BMG PheraStar […]
(§12) To determine EC50 values for degradation, a four parameter logistic model (Sigmoidal Dose-Response Model) (FIT= (A+((B-A)/1+((C/x)^D)))) C is the inflection point (EC50), D is […] , A and B are the low and high limits of the fit respectively) was used to determine the compound’s EC50 value, which is the half maximum effective concentration. In the degradation assays, the Yconst of each compound was calculated by normalizing the lowest point of the fitted curve to the media only control, which is 0%, and the cells treated with DMSO control, which is 100%. All degradation curves were processed and evaluated using Dotmatics.
(§13) Section 7: Biological Data Tables

CK1α = target: T3, CK1α (Homo sapiens, UniProt P48729+Q96SW2); test: ePL degradation assay, MDS-L/CK1α ePL OE_GSPT1G575N OE cells; format: cell-based; details: for EC50: degradation, 4 hr incubation, top conc 10 uM, N ≥ 3, read-out: CK1a EC50; for CK1a Ymin: depth of degradation (100% = no reduction, 0% = complete degradation), 4 hr, N ≥ 3
T3 construct: expressed in transfected cells; host or cells: MDS-L
Experimental: as §1, §2, §3, §4, §5, §6, §7, §8, §9, §10, §11, §12, §13

GSPT1 = target: T4, GSPT1 (Homo sapiens, UniProt P15170+Q96SW2); test: ePL degradation assay, DF15/GSPT1 ePL OE cells; format: cell-based; details: N ≥ 3; for EC50: degradation, 20 hr incubation, top conc 10 uM; for GSPT1 Ymin: depth of degradation (100% = no reduction, 0% = complete degradation), 20 hr
T4 construct: expressed in transfected cells; host or cells: DF15
Experimental: as §1, §2, §3, §4, §5, §6, §7, §8, §9, §10, §11, §12, §13

SALL4 = target: T5, SALL4 (Homo sapiens, UniProt Q96SW2+Q9UJQ4); test: HiBiT degradation assay, NCCIT/SALL4-HiBiT KI cells; format: cell-based; details: N ≥ 3; for EC50: degradation, 2 hr incubation, top conc 10 uM; for SALL4 Ymin: depth of degradation (100% = no reduction, 0% = complete degradation), 2 hr
T5 construct: endogenous in cells; host or cells: NCCIT (HiBiT knock-in)
Experimental: as §1, §2, §3, §4, §5, §6, §7, §8, §9, §10, §11, §12, §13

T2 sequence (Q9UKT9 whole entry): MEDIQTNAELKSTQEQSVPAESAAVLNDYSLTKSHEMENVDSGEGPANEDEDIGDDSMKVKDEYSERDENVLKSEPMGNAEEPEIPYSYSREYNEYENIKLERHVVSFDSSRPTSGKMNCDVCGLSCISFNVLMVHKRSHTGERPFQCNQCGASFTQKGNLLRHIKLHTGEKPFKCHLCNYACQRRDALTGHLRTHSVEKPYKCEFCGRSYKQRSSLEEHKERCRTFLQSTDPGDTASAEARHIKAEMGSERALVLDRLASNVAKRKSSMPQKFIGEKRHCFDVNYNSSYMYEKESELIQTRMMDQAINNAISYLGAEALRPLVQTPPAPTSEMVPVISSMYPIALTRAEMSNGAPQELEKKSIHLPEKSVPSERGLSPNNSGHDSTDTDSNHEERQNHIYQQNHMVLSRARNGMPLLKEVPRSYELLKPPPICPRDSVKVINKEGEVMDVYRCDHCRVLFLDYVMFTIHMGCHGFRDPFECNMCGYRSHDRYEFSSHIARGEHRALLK
T2 sequence (Q96SW2 whole entry): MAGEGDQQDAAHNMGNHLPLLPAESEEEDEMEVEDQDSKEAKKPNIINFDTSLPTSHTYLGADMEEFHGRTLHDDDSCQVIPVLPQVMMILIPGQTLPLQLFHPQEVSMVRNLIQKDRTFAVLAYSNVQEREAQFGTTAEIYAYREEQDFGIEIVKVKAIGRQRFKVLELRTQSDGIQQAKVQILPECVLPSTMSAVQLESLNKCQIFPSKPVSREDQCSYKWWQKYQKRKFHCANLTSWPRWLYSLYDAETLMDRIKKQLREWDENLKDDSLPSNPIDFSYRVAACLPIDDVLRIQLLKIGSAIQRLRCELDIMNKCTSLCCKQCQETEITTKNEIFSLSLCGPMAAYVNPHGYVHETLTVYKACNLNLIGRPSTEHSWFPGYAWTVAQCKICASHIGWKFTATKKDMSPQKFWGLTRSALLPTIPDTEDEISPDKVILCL
T2 sequence (Q16531 whole entry partner): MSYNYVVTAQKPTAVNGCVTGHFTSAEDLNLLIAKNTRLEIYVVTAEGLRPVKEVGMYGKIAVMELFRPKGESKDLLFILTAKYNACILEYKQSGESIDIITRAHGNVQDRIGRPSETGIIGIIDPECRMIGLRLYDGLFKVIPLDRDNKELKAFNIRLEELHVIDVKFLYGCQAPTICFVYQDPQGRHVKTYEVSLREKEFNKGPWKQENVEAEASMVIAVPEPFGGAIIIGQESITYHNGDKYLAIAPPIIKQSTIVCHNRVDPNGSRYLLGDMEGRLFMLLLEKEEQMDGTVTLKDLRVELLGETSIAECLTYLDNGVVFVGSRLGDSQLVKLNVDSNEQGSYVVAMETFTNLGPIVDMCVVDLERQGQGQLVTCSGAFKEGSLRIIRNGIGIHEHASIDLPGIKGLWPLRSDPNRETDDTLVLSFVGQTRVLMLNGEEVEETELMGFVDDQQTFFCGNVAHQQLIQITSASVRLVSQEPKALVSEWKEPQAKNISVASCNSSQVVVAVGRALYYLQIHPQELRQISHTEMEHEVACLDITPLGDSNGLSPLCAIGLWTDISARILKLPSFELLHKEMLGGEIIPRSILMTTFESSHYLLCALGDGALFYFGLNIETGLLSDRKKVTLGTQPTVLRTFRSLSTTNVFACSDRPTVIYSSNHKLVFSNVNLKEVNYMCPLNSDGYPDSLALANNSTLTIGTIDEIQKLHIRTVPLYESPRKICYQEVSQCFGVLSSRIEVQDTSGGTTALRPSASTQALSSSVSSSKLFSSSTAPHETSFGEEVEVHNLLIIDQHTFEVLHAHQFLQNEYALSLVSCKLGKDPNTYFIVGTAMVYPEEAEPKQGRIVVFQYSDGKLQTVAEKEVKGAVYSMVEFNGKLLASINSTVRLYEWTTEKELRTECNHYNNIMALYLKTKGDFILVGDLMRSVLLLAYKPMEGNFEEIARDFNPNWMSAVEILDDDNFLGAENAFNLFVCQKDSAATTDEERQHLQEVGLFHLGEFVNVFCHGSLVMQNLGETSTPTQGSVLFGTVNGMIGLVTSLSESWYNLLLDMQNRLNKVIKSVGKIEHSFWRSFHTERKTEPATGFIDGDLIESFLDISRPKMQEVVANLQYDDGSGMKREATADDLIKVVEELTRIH
T3 sequence (P48729 whole entry): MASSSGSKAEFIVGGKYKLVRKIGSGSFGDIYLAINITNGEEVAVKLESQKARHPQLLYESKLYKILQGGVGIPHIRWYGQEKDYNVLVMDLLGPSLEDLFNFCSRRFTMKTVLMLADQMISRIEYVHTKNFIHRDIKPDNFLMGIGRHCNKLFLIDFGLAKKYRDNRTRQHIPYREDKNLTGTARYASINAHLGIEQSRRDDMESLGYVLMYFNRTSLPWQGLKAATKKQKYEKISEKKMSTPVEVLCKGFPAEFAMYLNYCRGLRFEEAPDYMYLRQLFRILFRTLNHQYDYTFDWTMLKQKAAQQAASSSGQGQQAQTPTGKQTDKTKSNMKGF
T3 sequence (Q96SW2 whole entry): as the sequence (Q96SW2 whole entry) above
T3 sequence (Q16531 whole entry partner): as the sequence (Q16531 whole entry partner) above
T5 sequence (Q9UJQ4 whole entry): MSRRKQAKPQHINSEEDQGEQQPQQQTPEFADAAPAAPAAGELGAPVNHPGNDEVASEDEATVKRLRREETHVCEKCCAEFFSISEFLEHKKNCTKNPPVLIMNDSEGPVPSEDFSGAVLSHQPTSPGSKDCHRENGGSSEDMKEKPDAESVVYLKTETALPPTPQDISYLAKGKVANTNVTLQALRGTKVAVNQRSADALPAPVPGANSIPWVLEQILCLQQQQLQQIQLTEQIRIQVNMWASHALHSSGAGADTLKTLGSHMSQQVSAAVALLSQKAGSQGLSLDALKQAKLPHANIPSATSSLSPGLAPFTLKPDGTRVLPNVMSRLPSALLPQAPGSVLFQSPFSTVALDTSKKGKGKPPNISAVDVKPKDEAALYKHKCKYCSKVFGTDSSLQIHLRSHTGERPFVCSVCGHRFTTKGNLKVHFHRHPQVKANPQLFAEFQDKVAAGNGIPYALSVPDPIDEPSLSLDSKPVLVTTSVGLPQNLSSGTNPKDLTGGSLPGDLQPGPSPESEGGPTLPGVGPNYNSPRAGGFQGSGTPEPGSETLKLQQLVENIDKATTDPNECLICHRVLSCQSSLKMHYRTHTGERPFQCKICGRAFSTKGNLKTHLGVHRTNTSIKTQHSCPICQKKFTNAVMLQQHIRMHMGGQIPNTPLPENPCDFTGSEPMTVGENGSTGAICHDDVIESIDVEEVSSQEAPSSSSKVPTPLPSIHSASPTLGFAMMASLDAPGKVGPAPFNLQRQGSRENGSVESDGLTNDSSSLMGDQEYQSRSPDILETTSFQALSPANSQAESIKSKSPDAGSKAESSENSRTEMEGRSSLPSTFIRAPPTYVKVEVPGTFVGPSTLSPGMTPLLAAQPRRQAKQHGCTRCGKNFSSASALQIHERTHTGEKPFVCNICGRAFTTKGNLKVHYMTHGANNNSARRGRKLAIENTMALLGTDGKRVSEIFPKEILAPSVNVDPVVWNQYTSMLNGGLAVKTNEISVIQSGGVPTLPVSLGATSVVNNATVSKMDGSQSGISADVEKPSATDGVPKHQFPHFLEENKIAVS
T5 sequence (Q96SW2 whole entry): as the sequence (Q96SW2 whole entry) above
T5 sequence (Q16531 whole entry partner): as the sequence (Q16531 whole entry partner) above
T4 sequence (P15170 1-637 isoform P15170-3): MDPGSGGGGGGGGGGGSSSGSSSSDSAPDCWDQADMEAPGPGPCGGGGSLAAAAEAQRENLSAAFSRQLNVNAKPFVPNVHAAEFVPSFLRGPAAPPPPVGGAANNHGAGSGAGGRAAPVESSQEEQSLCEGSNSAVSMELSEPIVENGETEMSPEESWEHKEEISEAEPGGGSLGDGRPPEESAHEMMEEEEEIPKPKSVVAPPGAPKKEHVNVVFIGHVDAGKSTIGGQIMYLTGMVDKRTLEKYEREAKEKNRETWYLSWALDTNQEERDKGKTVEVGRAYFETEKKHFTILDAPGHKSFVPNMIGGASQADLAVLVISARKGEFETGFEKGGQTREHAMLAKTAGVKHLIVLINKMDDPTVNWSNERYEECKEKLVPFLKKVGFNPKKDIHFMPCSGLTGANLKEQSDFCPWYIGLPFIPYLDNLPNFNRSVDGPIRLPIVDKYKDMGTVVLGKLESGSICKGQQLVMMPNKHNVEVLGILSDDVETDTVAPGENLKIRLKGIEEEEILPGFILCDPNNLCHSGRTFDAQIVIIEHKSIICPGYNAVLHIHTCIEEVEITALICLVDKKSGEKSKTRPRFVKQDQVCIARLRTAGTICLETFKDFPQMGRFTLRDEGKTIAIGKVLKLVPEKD
T4 sequence (Q96SW2 whole entry): as the sequence (Q96SW2 whole entry) above
T4 sequence (Q16531 whole entry partner): as the sequence (Q16531 whole entry partner) above
T1 sequence (Q96SW2 whole entry): as the sequence (Q96SW2 whole entry) above
T1 sequence (Q16531 whole entry partner): as the sequence (Q16531 whole entry partner) above

| Structure (SMILES) | IC50 (CRBN) | EC50 (IKZF3 (Aiolos)) | IKZF3 Ymin (IKZF3 (Aiolos)) | EC50 (CK1α) | CK1a Ymin (CK1α) | EC50 (GSPT1) | GSPT1 Ymin (GSPT1) | EC50 (SALL4) | SALL4 Ymin (SALL4) |
| --- | --- | --- | --- | --- | --- | --- | --- | --- | --- |
| O=C1CCC(N2Cc3cc(C4=C[C@]4(C(=O)OCC(Cl)(Cl)Cl)c4ccc(Br)cc4)ccc3C2=O)C(=O)N1 (some centres unmarked) [Compound 21a] | 0.59 µM | > 10 µM | 95 ± 7.6% | > 10 µM | 89 ± 9.3% | > 10 µM | 81 ± 17% | > 10 µM | 89 ± 4.2% |
| O=C1CCC(N2Cc3cc(C4=C[C@@]4(C(=O)OCC(Cl)(Cl)Cl)c4ccc(Br)cc4)ccc3C2=O)C(=O)N1 (some centres unmarked) [Compound 21b] | 0.8 µM | 4.8 ± 2.6 µM | 79 ± 6.4% | 0.25 ± 0.37 µM | 57 ± 8.0% | 3.3 ± 3 µM | 7.7 ± 4.7% | 0.075 ± 0.05 µM | 68 ± 2.1% |
| O=C1CCC(N2C(=O)c3ccc(C4=C[C@]4(C(=O)OCC(Cl)(Cl)Cl)c4ccc(Br)cc4)cc3C2=O)C(=O)N1 (some centres unmarked) [Compound 22a] | 5.7 µM | 1.3 ± 2.1 µM | 73 ± 6.2% | 1.2 ± 1.2 µM | 60 ± 26% | 1.1 ± 0.69 µM |  | 3.6 ± 0.74 µM | 67 ± 7.8% |
| O=C1CCC(N2Cc3ccc(C4=C[C@]4(C(=O)OCC(Cl)(Cl)Cl)c4ccc(Br)cc4)cc3C2=O)C(=O)N1 (some centres unmarked) [Compound 23a] | 0.98 µM | > 10 µM | 94 ± 2.3% | > 10 µM | 93 ± 10% | > 10 µM | 82 ± 7.1% | > 10 µM | 95 ± 6.5% |
| O=C1CCC(N2Cc3ccc(C4=C[C@@]4(C(=O)OCC(Cl)(Cl)Cl)c4ccc(Br)cc4)cc3C2=O)C(=O)N1 (some centres unmarked) [Compound 23b] | 1.7 µM | > 10 µM | 81 ± 4.6% | > 10 µM | 95 ± 6.0% | > 10 µM | 88 ± 10% | > 10 µM | 91 ± 10% |
| O=C1CCC(N2Cc3cccc(C4=C[C@]4(C(=O)OCC(Cl)(Cl)Cl)c4ccc(Br)cc4)c3C2=O)C(=O)N1 (some centres unmarked) [Compound 24a] | 2.4 µM | > 10 µM | 97 ± 0.58% | > 10 µM | 96 ± 12% | > 10 µM | 85 ± 24% | > 10 µM | 95 ± 5.0% |
| O=C1CCC(N2Cc3cccc(C4=C[C@@]4(C(=O)OCC(Cl)(Cl)Cl)c4ccc(Br)cc4)c3C2=O)C(=O)N1 (some centres unmarked) [Compound 24b] | 2.9 µM | > 10 µM | 93 ± 2.5% | > 10 µM | 93 ± 6.8% | > 10 µM | 80 ± 4.3% | > 10 µM | 97 ± 5.2% |
